ChEMBL document CHEMBL3784917, “Recent Progress in Histone Demethylase Inhibitors” (J Med Chem, 2016)

What was measured:
[1] = molecular target: T1, Lysine-specific demethylase 5A (Homo sapiens, UniProt P29375)
[2] = molecular target: T2, Lysine-specific demethylase 5B (Homo sapiens, UniProt Q9UGL1)
[3] = molecular target: T1, Lysine-specific demethylase 5A; assay: biochemical
[4] = molecular target: T2, Lysine-specific demethylase 5B; assay: biochemical
[5] = molecular target: T3, Lysine-specific demethylase 4C (Homo sapiens, UniProt Q9H3R0); assay: biochemical
T3 sequence (Q9H3R0 whole entry): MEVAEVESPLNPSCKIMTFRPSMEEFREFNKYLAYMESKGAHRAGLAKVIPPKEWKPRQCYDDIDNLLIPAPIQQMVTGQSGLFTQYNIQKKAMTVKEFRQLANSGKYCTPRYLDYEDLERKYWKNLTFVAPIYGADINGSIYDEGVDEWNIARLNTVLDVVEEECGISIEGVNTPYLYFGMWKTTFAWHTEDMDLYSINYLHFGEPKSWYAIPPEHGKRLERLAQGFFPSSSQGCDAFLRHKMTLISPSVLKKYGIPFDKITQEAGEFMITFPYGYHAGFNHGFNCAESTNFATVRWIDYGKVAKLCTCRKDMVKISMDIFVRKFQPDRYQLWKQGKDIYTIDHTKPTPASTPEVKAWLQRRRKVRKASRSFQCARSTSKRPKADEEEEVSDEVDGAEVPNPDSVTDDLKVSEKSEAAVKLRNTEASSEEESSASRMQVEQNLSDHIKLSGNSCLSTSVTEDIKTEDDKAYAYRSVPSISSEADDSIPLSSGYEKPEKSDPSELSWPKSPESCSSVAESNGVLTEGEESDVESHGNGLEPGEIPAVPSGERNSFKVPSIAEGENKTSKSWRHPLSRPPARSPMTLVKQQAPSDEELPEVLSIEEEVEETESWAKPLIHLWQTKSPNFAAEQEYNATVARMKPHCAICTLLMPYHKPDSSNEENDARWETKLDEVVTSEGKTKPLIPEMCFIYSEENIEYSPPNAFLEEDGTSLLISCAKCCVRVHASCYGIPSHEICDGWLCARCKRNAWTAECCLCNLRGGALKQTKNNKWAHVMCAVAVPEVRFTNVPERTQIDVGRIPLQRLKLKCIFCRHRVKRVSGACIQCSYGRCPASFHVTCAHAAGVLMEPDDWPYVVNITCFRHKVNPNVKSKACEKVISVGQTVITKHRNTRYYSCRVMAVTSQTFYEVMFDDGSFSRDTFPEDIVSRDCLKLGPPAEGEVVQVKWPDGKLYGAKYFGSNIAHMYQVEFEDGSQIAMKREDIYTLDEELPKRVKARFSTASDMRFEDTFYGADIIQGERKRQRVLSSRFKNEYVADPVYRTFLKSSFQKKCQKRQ

[6] = molecular target: T4, Lysine-specific demethylase 4A (Homo sapiens, UniProt O75164)
T4 sequence (O75164 whole entry): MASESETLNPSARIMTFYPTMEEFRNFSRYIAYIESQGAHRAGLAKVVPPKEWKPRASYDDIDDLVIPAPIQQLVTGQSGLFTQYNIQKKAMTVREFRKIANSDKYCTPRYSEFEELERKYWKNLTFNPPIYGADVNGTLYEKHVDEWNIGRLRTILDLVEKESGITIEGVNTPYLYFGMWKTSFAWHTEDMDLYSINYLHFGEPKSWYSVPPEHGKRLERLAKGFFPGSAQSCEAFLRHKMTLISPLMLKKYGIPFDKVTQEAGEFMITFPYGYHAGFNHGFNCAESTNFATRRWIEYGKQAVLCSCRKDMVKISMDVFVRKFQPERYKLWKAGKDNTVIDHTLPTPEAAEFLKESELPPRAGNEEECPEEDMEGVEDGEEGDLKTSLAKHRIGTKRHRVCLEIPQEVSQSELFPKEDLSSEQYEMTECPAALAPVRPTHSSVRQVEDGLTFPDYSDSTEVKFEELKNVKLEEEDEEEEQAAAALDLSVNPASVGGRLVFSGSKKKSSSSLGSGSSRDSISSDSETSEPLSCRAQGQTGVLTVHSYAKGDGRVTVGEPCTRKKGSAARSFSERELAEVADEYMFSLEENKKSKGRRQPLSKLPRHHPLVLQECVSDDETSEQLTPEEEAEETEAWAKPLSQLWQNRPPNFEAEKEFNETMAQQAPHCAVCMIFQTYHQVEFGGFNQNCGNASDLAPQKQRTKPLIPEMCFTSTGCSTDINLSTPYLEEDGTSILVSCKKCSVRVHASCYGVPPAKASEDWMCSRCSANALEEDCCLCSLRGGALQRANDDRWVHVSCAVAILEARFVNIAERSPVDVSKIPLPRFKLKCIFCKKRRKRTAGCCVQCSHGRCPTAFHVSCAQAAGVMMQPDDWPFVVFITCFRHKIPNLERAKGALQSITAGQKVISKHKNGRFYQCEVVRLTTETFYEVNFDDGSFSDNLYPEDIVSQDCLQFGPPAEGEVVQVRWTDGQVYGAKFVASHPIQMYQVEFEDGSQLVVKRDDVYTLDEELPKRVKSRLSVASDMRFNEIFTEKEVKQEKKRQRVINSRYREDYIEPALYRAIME

[7] = molecular target: T5, Lysine-specific demethylase 2B (Homo sapiens, UniProt Q8NHM5); assay: biochemical
T5 sequence (Q8NHM5 whole entry): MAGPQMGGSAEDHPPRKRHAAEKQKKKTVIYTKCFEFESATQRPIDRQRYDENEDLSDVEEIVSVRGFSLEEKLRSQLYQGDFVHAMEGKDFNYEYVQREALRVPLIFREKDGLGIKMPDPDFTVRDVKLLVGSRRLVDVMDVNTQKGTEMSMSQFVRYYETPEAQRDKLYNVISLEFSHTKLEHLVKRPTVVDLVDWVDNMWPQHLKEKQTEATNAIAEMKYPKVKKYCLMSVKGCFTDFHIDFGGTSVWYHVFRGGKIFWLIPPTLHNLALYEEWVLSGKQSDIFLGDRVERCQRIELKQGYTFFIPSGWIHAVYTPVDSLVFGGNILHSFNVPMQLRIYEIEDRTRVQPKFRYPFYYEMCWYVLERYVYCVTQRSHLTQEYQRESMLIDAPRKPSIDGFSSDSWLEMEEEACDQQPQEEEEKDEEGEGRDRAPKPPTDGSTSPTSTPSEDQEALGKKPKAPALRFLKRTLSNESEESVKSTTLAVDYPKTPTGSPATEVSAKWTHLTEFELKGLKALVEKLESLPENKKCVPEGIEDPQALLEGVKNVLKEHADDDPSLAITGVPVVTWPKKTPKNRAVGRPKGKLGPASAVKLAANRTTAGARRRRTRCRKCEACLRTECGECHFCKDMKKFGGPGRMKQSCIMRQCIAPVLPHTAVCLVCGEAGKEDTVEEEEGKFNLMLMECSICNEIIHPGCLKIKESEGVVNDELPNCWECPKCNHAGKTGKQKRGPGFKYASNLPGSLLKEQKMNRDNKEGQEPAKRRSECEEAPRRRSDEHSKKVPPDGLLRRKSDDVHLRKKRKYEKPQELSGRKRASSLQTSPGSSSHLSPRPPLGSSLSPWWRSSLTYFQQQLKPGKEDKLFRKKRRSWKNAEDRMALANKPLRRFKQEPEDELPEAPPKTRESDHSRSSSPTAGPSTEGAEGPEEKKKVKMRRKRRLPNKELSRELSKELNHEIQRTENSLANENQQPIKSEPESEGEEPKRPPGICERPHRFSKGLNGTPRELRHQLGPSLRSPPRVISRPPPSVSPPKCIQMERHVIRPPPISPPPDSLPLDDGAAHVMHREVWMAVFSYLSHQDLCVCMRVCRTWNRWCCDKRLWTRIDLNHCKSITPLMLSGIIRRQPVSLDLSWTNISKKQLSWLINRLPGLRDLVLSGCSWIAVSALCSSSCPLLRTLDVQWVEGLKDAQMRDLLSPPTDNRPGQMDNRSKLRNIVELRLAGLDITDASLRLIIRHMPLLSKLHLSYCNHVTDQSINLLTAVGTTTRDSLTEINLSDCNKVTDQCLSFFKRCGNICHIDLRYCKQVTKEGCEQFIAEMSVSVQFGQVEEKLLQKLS

cells = details: Homo sapiens, KYSE-150, 168 h
[8] = molecular target: T3, Lysine-specific demethylase 4C
[9] = molecular target: T2, Lysine-specific demethylase 5B; remark: listed apart in the source
[10] = molecular target: Lysine-specific demethylase 6A (Homo sapiens, UniProt O15550)
[11] = molecular target: Lysine-specific histone demethylase 1A (Homo sapiens, UniProt O60341)
[12] = molecular target: T5, Lysine-specific demethylase 2B; assay: biochemical; remark: listed apart in the source

T1 sequence (P29375 whole entry): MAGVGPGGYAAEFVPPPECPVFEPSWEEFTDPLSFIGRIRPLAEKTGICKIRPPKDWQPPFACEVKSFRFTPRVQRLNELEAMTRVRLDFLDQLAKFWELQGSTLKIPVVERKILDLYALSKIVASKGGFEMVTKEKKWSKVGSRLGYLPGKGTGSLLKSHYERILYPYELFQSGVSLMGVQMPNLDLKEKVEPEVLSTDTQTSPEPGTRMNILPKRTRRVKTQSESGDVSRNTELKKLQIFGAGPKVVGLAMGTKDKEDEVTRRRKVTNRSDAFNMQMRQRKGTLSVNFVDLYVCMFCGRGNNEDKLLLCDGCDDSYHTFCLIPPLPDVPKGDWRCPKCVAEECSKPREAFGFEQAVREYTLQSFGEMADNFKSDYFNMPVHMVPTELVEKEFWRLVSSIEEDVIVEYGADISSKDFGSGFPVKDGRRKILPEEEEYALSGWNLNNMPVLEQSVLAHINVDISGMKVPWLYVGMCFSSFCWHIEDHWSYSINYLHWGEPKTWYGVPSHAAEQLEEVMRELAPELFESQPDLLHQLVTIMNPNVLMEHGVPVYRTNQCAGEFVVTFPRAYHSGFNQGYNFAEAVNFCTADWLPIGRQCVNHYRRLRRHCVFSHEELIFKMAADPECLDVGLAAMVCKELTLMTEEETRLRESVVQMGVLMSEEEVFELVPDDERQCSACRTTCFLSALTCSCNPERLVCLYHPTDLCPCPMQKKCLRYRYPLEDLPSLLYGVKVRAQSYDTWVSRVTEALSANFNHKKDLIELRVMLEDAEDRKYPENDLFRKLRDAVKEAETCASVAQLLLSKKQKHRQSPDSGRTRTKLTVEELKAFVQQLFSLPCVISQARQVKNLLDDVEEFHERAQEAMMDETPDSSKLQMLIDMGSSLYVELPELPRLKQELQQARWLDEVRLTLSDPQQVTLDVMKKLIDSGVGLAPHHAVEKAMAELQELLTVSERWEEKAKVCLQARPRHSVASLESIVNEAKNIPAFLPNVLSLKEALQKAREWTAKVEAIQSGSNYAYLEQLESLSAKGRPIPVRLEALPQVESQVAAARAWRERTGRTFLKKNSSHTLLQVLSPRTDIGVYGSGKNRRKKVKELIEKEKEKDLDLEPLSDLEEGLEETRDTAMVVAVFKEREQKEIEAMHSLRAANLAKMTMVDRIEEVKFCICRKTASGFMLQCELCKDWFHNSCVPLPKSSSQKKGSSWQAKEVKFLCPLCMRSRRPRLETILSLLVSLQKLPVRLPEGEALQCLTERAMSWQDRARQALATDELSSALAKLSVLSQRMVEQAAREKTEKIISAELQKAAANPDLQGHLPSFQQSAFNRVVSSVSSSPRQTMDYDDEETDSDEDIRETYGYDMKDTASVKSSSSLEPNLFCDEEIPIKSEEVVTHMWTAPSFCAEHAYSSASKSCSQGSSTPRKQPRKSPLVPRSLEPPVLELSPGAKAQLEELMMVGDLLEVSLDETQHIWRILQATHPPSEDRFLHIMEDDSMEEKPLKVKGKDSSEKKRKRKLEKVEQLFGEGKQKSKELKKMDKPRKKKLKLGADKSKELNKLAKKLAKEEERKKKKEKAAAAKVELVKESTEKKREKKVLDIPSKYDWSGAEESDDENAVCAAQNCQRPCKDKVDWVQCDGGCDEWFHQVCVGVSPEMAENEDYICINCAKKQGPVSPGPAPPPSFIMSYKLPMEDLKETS
T2 sequence (Q9UGL1 whole entry): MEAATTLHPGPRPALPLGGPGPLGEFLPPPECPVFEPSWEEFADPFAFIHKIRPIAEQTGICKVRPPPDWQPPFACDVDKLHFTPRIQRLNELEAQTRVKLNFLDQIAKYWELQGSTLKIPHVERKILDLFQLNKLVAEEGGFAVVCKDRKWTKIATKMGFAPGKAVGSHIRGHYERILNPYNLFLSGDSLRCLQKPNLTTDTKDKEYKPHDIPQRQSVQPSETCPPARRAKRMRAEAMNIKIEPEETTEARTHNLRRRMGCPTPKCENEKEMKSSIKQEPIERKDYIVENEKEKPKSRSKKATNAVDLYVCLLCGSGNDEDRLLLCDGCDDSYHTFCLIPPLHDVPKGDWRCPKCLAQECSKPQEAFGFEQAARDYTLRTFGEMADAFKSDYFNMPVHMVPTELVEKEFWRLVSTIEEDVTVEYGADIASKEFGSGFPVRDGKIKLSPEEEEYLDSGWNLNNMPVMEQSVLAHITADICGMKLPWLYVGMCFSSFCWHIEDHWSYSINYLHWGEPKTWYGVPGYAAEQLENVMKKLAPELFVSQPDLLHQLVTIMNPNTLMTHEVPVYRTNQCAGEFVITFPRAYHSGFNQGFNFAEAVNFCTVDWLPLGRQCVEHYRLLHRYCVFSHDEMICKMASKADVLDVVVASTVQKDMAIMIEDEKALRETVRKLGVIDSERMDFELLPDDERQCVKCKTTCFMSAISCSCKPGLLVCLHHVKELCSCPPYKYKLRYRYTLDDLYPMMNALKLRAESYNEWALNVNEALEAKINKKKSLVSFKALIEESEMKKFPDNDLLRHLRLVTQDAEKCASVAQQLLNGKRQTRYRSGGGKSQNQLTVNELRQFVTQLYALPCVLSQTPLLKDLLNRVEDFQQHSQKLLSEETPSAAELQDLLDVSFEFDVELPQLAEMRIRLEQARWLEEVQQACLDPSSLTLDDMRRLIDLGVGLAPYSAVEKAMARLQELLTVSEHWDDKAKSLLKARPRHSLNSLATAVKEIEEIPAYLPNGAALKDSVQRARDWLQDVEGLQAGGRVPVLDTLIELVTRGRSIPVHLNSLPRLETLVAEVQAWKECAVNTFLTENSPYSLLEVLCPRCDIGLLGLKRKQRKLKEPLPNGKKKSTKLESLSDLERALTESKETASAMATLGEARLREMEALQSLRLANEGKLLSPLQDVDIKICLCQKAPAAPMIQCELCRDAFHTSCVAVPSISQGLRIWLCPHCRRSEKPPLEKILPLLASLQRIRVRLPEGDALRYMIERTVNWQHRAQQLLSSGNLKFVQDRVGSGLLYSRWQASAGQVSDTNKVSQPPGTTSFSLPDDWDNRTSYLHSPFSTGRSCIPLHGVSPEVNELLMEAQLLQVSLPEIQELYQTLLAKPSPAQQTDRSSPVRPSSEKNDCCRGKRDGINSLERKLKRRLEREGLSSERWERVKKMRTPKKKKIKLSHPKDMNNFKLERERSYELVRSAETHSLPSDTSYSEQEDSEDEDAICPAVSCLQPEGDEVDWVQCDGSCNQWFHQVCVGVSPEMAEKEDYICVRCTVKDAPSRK
Chain of Lysine-specific demethylase 6A (O15550 whole entry): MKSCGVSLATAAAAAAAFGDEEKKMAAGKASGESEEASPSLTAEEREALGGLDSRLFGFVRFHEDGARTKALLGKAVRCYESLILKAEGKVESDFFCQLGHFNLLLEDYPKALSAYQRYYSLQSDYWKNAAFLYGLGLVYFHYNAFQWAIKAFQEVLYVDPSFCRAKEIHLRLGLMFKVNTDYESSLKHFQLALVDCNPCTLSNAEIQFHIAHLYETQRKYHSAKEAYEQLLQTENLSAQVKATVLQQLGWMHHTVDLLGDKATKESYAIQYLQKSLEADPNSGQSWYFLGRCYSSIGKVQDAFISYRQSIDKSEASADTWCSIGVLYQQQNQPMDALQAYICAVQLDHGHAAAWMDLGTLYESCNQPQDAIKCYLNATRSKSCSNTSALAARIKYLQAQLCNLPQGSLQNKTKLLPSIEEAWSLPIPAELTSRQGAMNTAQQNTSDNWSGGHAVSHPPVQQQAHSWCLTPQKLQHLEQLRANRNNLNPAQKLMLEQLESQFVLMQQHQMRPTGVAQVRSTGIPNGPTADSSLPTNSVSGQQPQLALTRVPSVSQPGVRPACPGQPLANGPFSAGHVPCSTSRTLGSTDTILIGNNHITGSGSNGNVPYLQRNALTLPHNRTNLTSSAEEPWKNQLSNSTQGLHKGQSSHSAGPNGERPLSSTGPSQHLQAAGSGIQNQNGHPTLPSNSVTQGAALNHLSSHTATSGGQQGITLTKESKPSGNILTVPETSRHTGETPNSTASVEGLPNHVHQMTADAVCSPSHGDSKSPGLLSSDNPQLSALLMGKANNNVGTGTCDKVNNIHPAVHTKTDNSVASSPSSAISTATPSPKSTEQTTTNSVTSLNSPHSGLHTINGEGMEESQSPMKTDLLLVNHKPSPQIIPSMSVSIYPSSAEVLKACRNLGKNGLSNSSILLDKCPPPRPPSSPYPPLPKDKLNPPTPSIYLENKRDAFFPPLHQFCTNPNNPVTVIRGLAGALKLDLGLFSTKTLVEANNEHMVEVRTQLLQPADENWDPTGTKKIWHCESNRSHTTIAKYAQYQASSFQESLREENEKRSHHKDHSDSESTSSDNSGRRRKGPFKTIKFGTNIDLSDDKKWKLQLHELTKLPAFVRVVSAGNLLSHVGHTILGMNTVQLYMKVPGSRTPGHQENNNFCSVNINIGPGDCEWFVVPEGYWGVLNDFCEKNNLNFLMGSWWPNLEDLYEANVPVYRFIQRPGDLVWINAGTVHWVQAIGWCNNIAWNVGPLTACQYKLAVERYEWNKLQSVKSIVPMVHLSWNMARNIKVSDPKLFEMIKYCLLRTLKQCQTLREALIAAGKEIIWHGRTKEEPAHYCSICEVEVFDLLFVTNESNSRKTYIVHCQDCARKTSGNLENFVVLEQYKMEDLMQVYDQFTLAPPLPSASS

Compound | IC50 [1] [nM] | IC50 [2] [nM] | IC50 [3] [nM] | IC50 [4] [nM] | IC50 [5] [nM] | further results
O=C(O)c1ccncc1Nc1nn(C2CCCC2)c2ccc(F)cc12 | 100 | 100 | < 100 | < 100 | 100 | 
Cn1cnc(-c2cc(-c3nn[nH]n3)ccn2)c1 | > 10000 | > 10000 | 100 | 100 | > 10000 | IC50 [6]: > 10000 nM; IC50 [7]: < 100 nM
COc1cc(COc2cc3nccc(C(=O)O)c3[nH]2)ccc1Cl |  |  | 1000 | 1000 | < 100 | IC50 [6]: 100 nM
Cn1nc(Nc2cnccc2C(=O)O)c2cccnc21 | 100 | 100 | < 100 | < 100 | 100 | 
COC(=O)c1ccnc2cc(OCc3ccc(Cl)c(OC(F)(F)F)c3)[nH]c12 |  |  |  |  |  | IC50 (cells): < 100 nM
COC(=O)c1ccnc2cc(OCc3ccc(Cl)c(OC)c3)[nH]c12 |  |  |  |  |  | IC50 (cells): < 100 nM
O=C(O)c1ccnc(CNCc2nccn2C/C=C/c2ccccc2)c1 |  |  |  |  |  | IC50 [8]: > 2500 nM; IC50 [9]: < 250 nM; IC50 [10]: > 2500 nM
O=C(O)c1ccnc(-n2ncc(CCO)c2OCc2ccc(F)cc2)c1 |  |  | < 100 | < 100 | 1000 | 
O=C(O)CC1(N2CCC(N[C@@H]3C[C@H]3c3ccccc3)CC2)CN(CCC(F)(F)F)C1 |  |  |  |  |  | IC50 [11]: < 100 nM
O=C(O)c1ccnc2cc(OCc3ccc(Cl)c(OC(F)(F)F)c3)[nH]c12 |  |  | 100 | < 100 | < 100 | IC50 [6]: 100 nM
CNC(=O)c1ccnc2cc(OCc3ccc(Cl)c(OC(F)(F)F)c3)[nH]c12 |  |  |  |  |  | IC50 (cells): < 100 nM
O=C(O)c1ccnc(-n2nccc2OCc2ccc(Cl)cc2)c1 | 100 | 100 | < 100 | < 100 | < 100 | 
Nc1ccnc(N2CCC(N[C@@H]3C[C@H]3c3ccccc3)CC2)n1 |  |  |  |  |  | IC50 [11]: < 100 nM
CN(C)CC(=O)N1CCC(CN[C@@H]2C[C@H]2c2ccccc2)(Cc2cccc(C#N)c2)CC1 |  |  |  |  |  | IC50 [11]: < 100 nM
CC(C)Cn1nc(Nc2cnccc2C(=O)NC#N)c2cc(F)ccc21 |  |  | < 100 | < 100 | 1000 | 
COC(=O)c1ccnc2cc(OCc3ccc(Cl)c(OCC4CC4)c3)[nH]c12 |  |  |  |  |  | IC50 (cells): < 100 nM
COC(=O)c1ccnc(-n2nccc2OCc2ccc(Cl)cc2)c1 | 100 | 100 |  |  |  | 
COC1(CN[C@@H]2C[C@H]2c2ccccc2)CCN(S(=O)(=O)c2ccn(C)n2)CC1 |  |  |  |  |  | IC50 [11]: < 100 nM
CCN1CCC[C@H](CNCc2cc(C(=O)O)ccn2)C1=O |  |  |  |  |  | IC50 [9]: < 250 nM; IC50 [10]: > 2500 nM; IC50 [12]: < 250 nM
O=C(O)c1ccnc2cc(OCc3ccc(Cl)c(OCC4CC4)c3)[nH]c12 |  |  | 100 | < 100 | < 100 | IC50 [6]: 1000 nM
Cc1cc(Cl)ccc1COc1ccnn1-c1cc(C(=O)O)ccn1 | < 100 | < 100 | < 100 | < 100 | 100 | IC50 [7]: 100 nM
Cn1cnc(-c2cc(C(=O)O)ccn2)c1 | > 10000 | > 10000 | < 100 | < 100 | < 100 | IC50 [6]: < 100 nM; IC50 [7]: < 100 nM
COc1ccc(-c2c(-c3cc(C(=O)O)ccn3)ncn2C)cc1 | 1000 | 1000 | 100 | 100 | 1000 | IC50 [7]: 100 nM
Cn1cnc(-c2cc(C(=O)O)ccn2)c1-c1ccc(OCC2CC2)cc1 | 1000 | 1000 | < 100 | < 100 | 100 | IC50 [7]: 100 nM
O=C(O)c1cnnc(CNCC(=O)N2CCCCC2)c1 |  |  |  |  |  | IC50 [8]: < 250 nM; IC50 [9]: < 250 nM; IC50 [10]: > 2500 nM
O=C(O)c1ccncc1NCC12CC3CC(CC(C3)C1)C2 |  |  | 100 | 100 | < 100 | IC50 (cells): > 10000 nM
